{
  "source": "patent US20220338473A1",
  "about": "“USE OF BENZYL ALCOHOL AS A HERBICIDE” (INNOVI, priority 2019, published 2022)",
  "assay_type_in_all_cases": "in vivo",
  "key": {"[1]": {"tested_on": "squares of grass", "experiment": "Outdoor assays with benzyl alcohol used alone", "experimental": "The outdoor assays were carried out on squares of grass having a surface area of 1 m^2. The application of the product is carried out with a compression sprayer which makes it possible to spray 20 to 100 g liquid over a surface area of 1 m^2 (equivalent to 200-1000 L/Ha).\nThe treated squares of grass are sprayed with a total quantity of water and pure benzyl alcohol (PanReac AppliChem—ITW Reagents) of 20 g (equivalent 200 l/Ha) including 0.5 g benzyl alcohol (equivalent to 5 L/Ha pure benzyl alcohol).\nThe control squares of grass receive a total quantity of 20 g water alone.\nThe following measurements and evaluations were carried out: • Percentage of the surface area affected: Following the assays in pots, it was noted that the change in colour correlated with the collapsing and the death of the plants. The time necessary to impact the colour of the grass as well as its surface area was evaluated. • Measurement of the collapsing of the grass: the distance between the ground and the highest part of 10 blades of grass selected at random in a square is measured. The average of these 10 blades is calculated and, after treatment, when this average distance is reduced by 30%, the collapsing time is determined.\nAssay no. 2 was carried out under the same conditions as assay no. 1, except that the treated squares of grass are sprayed with a total quantity of water and benzyl alcohol of 60 g (equivalent 600 L/Ha) including 5 g pure benzyl alcohol (equivalent to 50 L/Ha pure benzyl alcohol).\nAssay no. 3 was carried out under the same conditions as assay no. 1, except that the treated squares of grass are sprayed with a total quantity of 20 g pure benzyl alcohol (equivalent to 200 L/Ha pure benzyl alcohol).\nAssay no. 4 was carried out under the same conditions as assay no. 1, except that the treated squares of grass are sprayed with a total quantity of water and benzyl alcohol of 60 g (equivalent 600 L/Ha) including 40 g pure benzyl alcohol (equivalent to 400 L/Ha pure benzyl alcohol).\nAssay no. 5 was carried out under the same conditions as assay no. 1, except that the treated squares of grass are sprayed with a total quantity of water and benzyl alcohol of 100 g (equivalent 1000 L/Ha) including 60 g pure benzyl alcohol (equivalent to 600 L/Ha pure benzyl alcohol).\nAssay no. 6 was carried out under the same conditions as assay no. 1, except that the treated squares of grass are sprayed with a total quantity of 80 g pure benzyl alcohol (equivalent to 800 L/Ha pure benzyl alcohol)."}, "[2]": {"tested_on": "Clover", "experiment": "Non-selective activity on herbaceous plants (spraying, potted)", "conditions": "4 g benzyl alcohol (200 L/Ha) in 8 g total (400 L/Ha)", "experimental": "(§1) The non-selective character of benzyl alcohol was studied on 3 common varieties of herbaceous plants, two dicotyledons (dandelions and clover) and a monocotyledon (grass).\n(§2) The assays were carried out on potted plants. The application of the product is carried out with a trigger spray bottle which makes it possible to spray 1 g of product per spraying, as microdroplets.\n(§3) The treated plants are sprinkled with different quantities of water comprising different quantities of pure benzyl alcohol (PanReac AppliChem—ITW Reagents). The untreated (control) plants are sprinkled with the same total quantity of water only.\n(§4) The plants are observed at the following times: T0, 6 h, 24 h, 48 h, 72 h, 96 h. The collapsing of the plant, the colour intensity and the diameter of the plant were measured as indicated in Example 1."}, "[3]": {"tested_on": "Dandelion", "experiment": "Non-selective activity on herbaceous plants (spraying, potted)", "conditions": "4 g benzyl alcohol (200 L/Ha) in 8 g total (400 L/Ha)", "experimental": "as §1, §2, §3, §4"}, "[4]": {"tested_on": "Chenopodium album (CHEAL)", "experiment": "Systemic action through contact with the leaves: metabolic activity by epifluorescence microscopy", "conditions": "20 L/ha, control group 5", "experimental": "Chenopodium album (CHEAL) seeds are sown in Petri dishes in vermiculite moistened with a 0.2% solution of […]. The dishes are incubated in a climatic chamber at 15° C./20° C. night/day and 14 h photoperiod up to the stage of emergence of the cotyledons. The plantlets are then transplanted, at a rate of 6 plants per pot and 5 pots in each of the groups (treated group and control group), in a mixture of agricultural earth:vermiculite (50:50).\nThe plantlets are cultivated under the same environmental conditions as previously up to the stage BBCH12-14.\nThe plants are treated with benzyl alcohol at the stage BBCH12-14 with a dose of 20 L/ha benzyl alcohol with 660 g/I water, i.e. 13.2 kg benzyl alcohol/ha.\nThe product is applied in a volume corresponding to 300 L/ha using a spraying bench equipped with agricultural nozzles (Turbo Teejet TTII0015).\nAfter treatment, the plants are returned to cultivation in a climatic chamber at 15° C./20° C. night/day and 14 h photoperiod.\nA control group is not treated and only receives water.\n[…] observations were carried out by epifluorescence microscopy on the leaves and the roots of the treated plants and the control plants, 24 h and 7 days after treatment on the leaves.\nThe results observed on the epifluorescence microscopy images are reported in Tables 11 and 12 below, in which a mark of 0 to 5 is attributed depending on the intensity and the surface area of the fluorescence observed, where 0=no metabolic activity, and 5=complete metabolic activity.\nBefore uprooting and epifluorescence microscopy analysis, the treated plants were divided into 2 groups: • Group 1: plants not showing or showing few symptoms of drying on the treated area (leaf) • Group 2: plants having a dry leaf on the treated area (leaf)"}, "[5]": {"conditions": "24 h after leaf spraying, Group 1 (no or few symptoms of drying)"}, "[6]": {"conditions": "24 h after leaf spraying, Group 2 (dry leaf on treated area)"}, "[7]": {"conditions": "7 days after leaf spraying, Group 1 (no or few symptoms of drying)"}, "[8]": {"conditions": "7 days after leaf spraying, Group 2 (dry leaf on treated area)"}},
  "data": [
    {"smiles": "OCc1ccccc1", "note": "[benzyl alcohol]", "values": [
      {"measurement": "Collapsing of the grass: time after treatment to average collapsing of 30%", "setting": "[1]; Assay no. 1: 1 m2 grass outdoors, 0.5 g benzyl alcohol (5 L/Ha) in 20 g total (200 l/Ha)", "value": 72, "unit": "h"},
      {"measurement": "Maximum percentage of the surface area affected", "setting": "[1]; Assay no. 1: 1 m2 grass outdoors, 0.5 g benzyl alcohol (5 L/Ha) in 20 g total (200 l/Ha), observed 96 h after treatment", "value": 45, "unit": "%"},
      {"measurement": "Collapsing of the grass: time after treatment to average collapsing of 30%", "setting": "[1]; Assay no. 2: 1 m2 grass outdoors, 5 g benzyl alcohol (50 L/Ha) in 60 g total (600 L/Ha)", "value": 48, "unit": "h"},
      {"measurement": "Maximum percentage of the surface area affected", "setting": "[1]; Assay no. 2: 1 m2 grass outdoors, 5 g benzyl alcohol (50 L/Ha) in 60 g total (600 L/Ha), observed 72 h after treatment", "value": 60, "unit": "%"},
      {"measurement": "Collapsing of the grass: time after treatment to average collapsing of 30%", "setting": "[1]; Assay no. 3: 1 m2 grass outdoors, 20 g pure benzyl alcohol (200 L/Ha)", "value": 48, "unit": "h"},
      {"measurement": "Maximum percentage of the surface area affected", "setting": "[1]; Assay no. 3: 1 m2 grass outdoors, 20 g pure benzyl alcohol (200 L/Ha), observed 48 h after treatment", "value": 80, "unit": "%"},
      {"measurement": "Collapsing of the grass: time after treatment to average collapsing of 30%", "setting": "[1]; Assay no. 4: 1 m2 grass outdoors, 40 g benzyl alcohol (400 L/Ha) in 60 g total (600 L/Ha)", "value": 24, "unit": "h"},
      {"measurement": "Maximum percentage of the surface area affected", "setting": "[1]; Assay no. 4: 1 m2 grass outdoors, 40 g benzyl alcohol (400 L/Ha) in 60 g total (600 L/Ha), observed 24 h after treatment", "value": 100, "unit": "%"},
      {"measurement": "Collapsing of the grass: time after treatment to average collapsing of 30%", "setting": "[1]; Assay no. 5: 1 m2 grass outdoors, 60 g benzyl alcohol (600 L/Ha) in 100 g total (1000 L/Ha)", "value": 6, "unit": "h"},
      {"measurement": "Maximum percentage of the surface area affected", "setting": "[1]; Assay no. 5: 1 m2 grass outdoors, 60 g benzyl alcohol (600 L/Ha) in 100 g total (1000 L/Ha), observed 24 h after treatment", "value": 100, "unit": "%"},
      {"measurement": "Collapsing of the grass: time after treatment to average collapsing of 30%", "setting": "[1]; Assay no. 6: 1 m2 grass outdoors, 80 g pure benzyl alcohol (800 L/Ha)", "value": 6, "unit": "h"},
      {"measurement": "Maximum percentage of the surface area affected", "setting": "[1]; Assay no. 6: 1 m2 grass outdoors, 80 g pure benzyl alcohol (800 L/Ha), observed 6 h after treatment", "value": 100, "unit": "%"},
      {"measurement": "Collapsing (score and time): time to pass from score 5 (T0) to score 1", "setting": "[2]", "value": "1 to 48", "unit": "h"},
      {"measurement": "Colour intensity (score and time): time to pass from score 5 (T0) to score 1", "setting": "[2]", "value": "1 to 24", "unit": "h"},
      {"measurement": "Diameter (score and time): time to pass from score 5 (T0) to score 1", "setting": "[2]", "value": "1 to 48", "unit": "h"},
      {"measurement": "Collapsing (score and time): time to pass from score 5 (T0) to score 1", "setting": "[3]", "value": "1 to 48", "unit": "h"},
      {"measurement": "Colour intensity (score and time): time to pass from score 5 (T0) to score 1", "setting": "[3]", "value": "1 to 24", "unit": "h"},
      {"measurement": "Diameter (score and time): time to pass from score 5 (T0) to score 1", "setting": "[3]", "value": "1 to 48", "unit": "h"},
      {"measurement": "Metabolic activity on the leaves (mark 0 to 5; 0=no, 5=complete metabolic activity)", "setting": "[4]; [5]", "value": 1},
      {"measurement": "Metabolic activity on the roots (mark 0 to 5; 0=no, 5=complete metabolic activity)", "setting": "[4]; [5]", "value": 2},
      {"measurement": "Metabolic activity on the leaves (mark 0 to 5; 0=no, 5=complete metabolic activity)", "setting": "[4]; [6]", "value": 1},
      {"measurement": "Metabolic activity on the roots (mark 0 to 5; 0=no, 5=complete metabolic activity)", "setting": "[4]; [6]", "value": 2.5},
      {"measurement": "Metabolic activity on the leaves (mark 0 to 5; 0=no, 5=complete metabolic activity)", "setting": "[4]; [7]", "value": 0.5},
      {"measurement": "Metabolic activity on the roots (mark 0 to 5; 0=no, 5=complete metabolic activity)", "setting": "[4]; [7]", "value": 1.5},
      {"measurement": "Metabolic activity on the leaves (mark 0 to 5; 0=no, 5=complete metabolic activity)", "setting": "[4]; [8]", "value": 0},
      {"measurement": "Metabolic activity on the roots (mark 0 to 5; 0=no, 5=complete metabolic activity)", "setting": "[4]; [8]", "value": 2}
    ]}
  ]
}
